Source: ChEMBL document CHEMBL1201862, “PubChem BioAssay data set” (2004)
Blank lines part the entries; values can stand above or below the compound they belong to. Activity calls are given as the source filed them.

Experiments:
[1] = target: T1, E3 ubiquitin-protein ligase XIAP (Homo sapiens, UniProt P98170); assay: small molecules displacing peptide from XIAP – biochemical, IAP family, fluorescence polarization (AID 1018); assay type: functional
[2] = target: T1, E3 ubiquitin-protein ligase XIAP; assay: Counter Screen using XIAP-Bir3 for Chemical Antagonists of Bir1/2 domains of IAP-family anti-apoptotic proteins. [Related pubchem assays (depositor defined):AID1018, AID1449, AID1514, AID1638, AID1749, AID1750, AID488957, AID488963]
[3] = Luminescence Cell-Based Dose Confirmation HTS to Identify Inhibitors of Polyadenylation.; assay type: functional
[4] = target: T2, Serine/threonine-protein phosphatase (Candida dubliniensis (strain CD36 / CBS 7987 / NCPF 3949 / NRRLY-17841) (Yeast), UniProt B9W6M3); assay: blockers of CaCl2-induced CDRE-lacZ signaling – S. cerevisiae, luminescence, secondary, dose response (AID 2388); assay type: functional, cell-based;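 note: yeast reporter cells carrying a calcineurin-responsive lacZ construct stimulated with calcium chloride; luminescent beta-galactosidase reporter signal in whole cells rather than isolated phosphatase activity; potency for inhibition where a drop in reporter signal means calcineurin blockade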
T2 sequence (B9W6M3 whole entry): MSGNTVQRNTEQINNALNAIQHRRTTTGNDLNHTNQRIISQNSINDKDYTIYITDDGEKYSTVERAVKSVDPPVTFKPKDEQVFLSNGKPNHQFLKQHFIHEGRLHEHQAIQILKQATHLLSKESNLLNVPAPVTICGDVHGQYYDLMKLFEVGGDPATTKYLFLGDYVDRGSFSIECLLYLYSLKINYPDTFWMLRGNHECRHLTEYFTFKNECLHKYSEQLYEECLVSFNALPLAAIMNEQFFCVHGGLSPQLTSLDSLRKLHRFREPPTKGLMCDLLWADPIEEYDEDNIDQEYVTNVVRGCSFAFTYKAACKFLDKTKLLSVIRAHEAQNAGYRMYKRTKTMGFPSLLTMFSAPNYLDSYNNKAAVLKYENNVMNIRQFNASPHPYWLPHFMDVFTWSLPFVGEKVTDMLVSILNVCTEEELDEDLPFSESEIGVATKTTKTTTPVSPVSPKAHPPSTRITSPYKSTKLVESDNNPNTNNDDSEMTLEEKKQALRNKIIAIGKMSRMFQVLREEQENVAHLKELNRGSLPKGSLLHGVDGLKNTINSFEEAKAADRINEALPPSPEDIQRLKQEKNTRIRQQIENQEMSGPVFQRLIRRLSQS

[5] = fluconazole-exposed Candida albicans growth modulators – fluorescence, retest, confirmation (AID 2467); assay type: functional, cell-based
[6] = NIH-3T3 fibroblast cytotoxicity, dose response, cytotoxicity control, cell-based, fluorescence, Alamar Blue, secondary assay (AID 2327); assay type: functional;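 note: NIH-3T3 mouse fibroblasts cultured with fluconazole at 8 µg/mL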
[7] = target: ATP-dependent molecular chaperone HSP82 (Candida albicans (strain WO-1) (Yeast), UniProt C4YTQ8); assay: steroid-induced GRE reporter decrease in yeast – S. cerevisiae, luminescence, Hsp90 inhibitor project, dose response (AID 2400); assay type: functional, cell-based;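 note: beta-galactosidase luminescence from glucocorticoid response element reporter as proxy for Hsp90 function; inhibitor potency where signal loss means Hsp90 inhibition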
Chain of ATP-dependent molecular chaperone HSP82 (C4YTQ8 whole entry): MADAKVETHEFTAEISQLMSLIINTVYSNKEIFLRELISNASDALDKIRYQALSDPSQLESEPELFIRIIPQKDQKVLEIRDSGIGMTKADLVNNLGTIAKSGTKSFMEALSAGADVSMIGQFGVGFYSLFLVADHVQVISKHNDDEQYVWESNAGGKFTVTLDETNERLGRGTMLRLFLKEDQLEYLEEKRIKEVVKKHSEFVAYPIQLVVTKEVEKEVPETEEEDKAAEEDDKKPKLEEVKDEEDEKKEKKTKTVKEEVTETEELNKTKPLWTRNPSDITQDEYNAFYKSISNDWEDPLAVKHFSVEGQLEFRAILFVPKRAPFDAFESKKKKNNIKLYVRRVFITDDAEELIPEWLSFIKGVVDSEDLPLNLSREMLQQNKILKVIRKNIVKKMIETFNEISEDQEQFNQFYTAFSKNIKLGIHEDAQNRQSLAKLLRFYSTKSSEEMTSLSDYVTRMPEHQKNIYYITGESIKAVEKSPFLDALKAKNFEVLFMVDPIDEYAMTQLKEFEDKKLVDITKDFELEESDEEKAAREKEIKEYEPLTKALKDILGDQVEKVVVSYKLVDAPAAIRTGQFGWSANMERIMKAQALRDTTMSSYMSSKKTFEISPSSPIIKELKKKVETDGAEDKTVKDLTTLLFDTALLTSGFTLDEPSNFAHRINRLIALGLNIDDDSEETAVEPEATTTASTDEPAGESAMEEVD

[8] = target: Sphingosine 1-phosphate receptor 3 (Homo sapiens, UniProt Q99500); assay: Dose Response Cell-Based Assay for Agonists of the Sphingosine 1-Phosphate Receptor 3 (S1P3): Purchased Analogues. [Related pubchem assays: 373, 439 ]; assay type: functional
Chain of Sphingosine 1-phosphate receptor 3 (Q99500 whole entry): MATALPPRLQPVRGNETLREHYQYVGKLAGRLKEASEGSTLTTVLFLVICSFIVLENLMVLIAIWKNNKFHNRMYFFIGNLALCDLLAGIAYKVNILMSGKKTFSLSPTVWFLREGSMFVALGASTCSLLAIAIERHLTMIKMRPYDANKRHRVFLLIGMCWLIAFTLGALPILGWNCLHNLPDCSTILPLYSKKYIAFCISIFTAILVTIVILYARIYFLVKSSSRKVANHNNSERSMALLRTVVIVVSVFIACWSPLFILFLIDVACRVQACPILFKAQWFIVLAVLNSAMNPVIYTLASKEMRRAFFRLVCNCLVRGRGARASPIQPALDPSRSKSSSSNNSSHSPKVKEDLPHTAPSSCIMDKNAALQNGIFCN

[9] = target: Sphingosine 1-phosphate receptor 1 (Homo sapiens, UniProt P21453); assay: Dose Response Cell-Based Assay for Agonists of the Sphingosine 1-Phosphate Receptor 1 (S1P1): Purchased Analogues. [Related pubchem assays: 1192, 373, 439 ]; assay type: functional
Chain of Sphingosine 1-phosphate receptor 1 (P21453 whole entry): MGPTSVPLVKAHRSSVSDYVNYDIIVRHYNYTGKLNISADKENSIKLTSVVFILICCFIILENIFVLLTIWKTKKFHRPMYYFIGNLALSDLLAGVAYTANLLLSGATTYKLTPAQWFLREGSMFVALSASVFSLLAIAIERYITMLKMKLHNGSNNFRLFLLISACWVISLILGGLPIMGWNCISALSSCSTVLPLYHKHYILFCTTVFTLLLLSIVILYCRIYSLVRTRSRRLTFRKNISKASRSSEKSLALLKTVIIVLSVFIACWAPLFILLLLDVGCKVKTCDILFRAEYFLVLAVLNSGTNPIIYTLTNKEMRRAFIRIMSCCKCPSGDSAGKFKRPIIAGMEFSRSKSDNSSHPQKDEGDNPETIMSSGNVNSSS

[10] = target: T3, Sphingosine 1-phosphate receptor 2 (Homo sapiens, UniProt O95136); assay: Dose Response Cell-Based Assay for Agonists of the Sphingosine 1-Phosphate Receptor 2 (S1P2): Purchased Analogues. [Related pubchem assays: 1192, 373, 439 ]; assay type: functional
T3 sequence (O95136 whole entry): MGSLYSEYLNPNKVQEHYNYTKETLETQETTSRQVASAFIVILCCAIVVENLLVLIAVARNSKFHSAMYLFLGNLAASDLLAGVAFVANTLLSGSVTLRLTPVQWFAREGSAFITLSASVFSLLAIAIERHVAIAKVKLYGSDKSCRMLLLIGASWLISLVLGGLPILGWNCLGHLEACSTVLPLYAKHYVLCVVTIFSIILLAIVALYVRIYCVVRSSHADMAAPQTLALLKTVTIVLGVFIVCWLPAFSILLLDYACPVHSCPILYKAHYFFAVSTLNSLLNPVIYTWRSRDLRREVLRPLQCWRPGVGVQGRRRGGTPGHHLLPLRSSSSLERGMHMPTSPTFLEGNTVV

[11] = target: NADPH oxidase 1 (Homo sapiens, UniProt Q9Y5S8); assay type: functional, cell-based;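 note: Cell-based assay with luminescence read-out, IC50 derived from inhibitor dose-response curves; intracellular ROS from endogenous NOX1 in intact HT29 colon cancer cells; potency of inhibitors that lower the ROS luminescence signal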
Chain of NADPH oxidase 1 (Q9Y5S8 whole entry): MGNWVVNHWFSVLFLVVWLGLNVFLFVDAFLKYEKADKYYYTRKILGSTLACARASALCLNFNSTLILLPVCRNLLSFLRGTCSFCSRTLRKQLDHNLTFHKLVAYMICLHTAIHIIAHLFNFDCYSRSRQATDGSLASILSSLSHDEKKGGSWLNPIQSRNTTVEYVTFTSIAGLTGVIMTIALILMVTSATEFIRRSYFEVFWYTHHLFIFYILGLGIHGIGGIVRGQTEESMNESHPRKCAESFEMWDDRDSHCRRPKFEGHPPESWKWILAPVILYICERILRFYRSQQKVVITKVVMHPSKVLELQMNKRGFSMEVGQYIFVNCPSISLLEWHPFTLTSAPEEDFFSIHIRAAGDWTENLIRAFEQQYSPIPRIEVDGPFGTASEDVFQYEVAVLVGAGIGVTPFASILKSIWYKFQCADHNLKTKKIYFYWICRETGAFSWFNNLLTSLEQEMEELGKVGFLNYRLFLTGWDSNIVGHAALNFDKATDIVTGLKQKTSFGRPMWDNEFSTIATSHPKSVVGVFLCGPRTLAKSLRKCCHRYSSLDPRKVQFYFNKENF

[12] = target: T3, Sphingosine 1-phosphate receptor 2; assay: Dose Response Cell Based Assay for Agonists of the S1P2 Receptor of Purchased Analogues. [Related pubchem assays: 729, 843, 854, 736 ]; assay type: functional
[13] = target: T4, Estrogen receptor (Homo sapiens, UniProt P03372);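 note: potency for inhibiting coactivator peptide recruitment to the receptor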
T4 sequence (P03372 whole entry): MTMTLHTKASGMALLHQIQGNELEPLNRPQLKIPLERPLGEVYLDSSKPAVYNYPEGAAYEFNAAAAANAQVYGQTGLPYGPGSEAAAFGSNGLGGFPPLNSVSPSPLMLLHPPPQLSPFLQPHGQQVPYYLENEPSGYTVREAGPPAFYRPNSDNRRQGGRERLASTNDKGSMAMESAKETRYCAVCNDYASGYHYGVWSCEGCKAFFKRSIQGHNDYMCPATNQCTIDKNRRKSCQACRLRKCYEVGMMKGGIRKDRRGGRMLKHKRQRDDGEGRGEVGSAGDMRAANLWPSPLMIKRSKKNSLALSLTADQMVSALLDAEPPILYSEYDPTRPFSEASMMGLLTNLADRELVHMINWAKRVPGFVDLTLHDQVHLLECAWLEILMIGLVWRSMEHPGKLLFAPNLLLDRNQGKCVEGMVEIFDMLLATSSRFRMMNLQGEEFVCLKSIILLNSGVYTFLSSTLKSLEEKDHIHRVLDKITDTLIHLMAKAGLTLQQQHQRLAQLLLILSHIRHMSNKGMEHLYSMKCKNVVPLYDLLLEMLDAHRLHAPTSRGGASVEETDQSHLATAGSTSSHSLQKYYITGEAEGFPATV

[14] = target: Estrogen receptor beta (Homo sapiens, UniProt Q92731);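 note: recombinant ER-beta bound to coactivator SRC1 peptide in presence of estradiol agonist; inhibitors block coactivator peptide binding and lower the FRET signal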
[15] = Luminescence Cell-Based Dose Retest to Confirm Inhibitors of Cancer Stem Cells. [Related pubchem assays (depositor defined):AID2717, AID2721]; assay type: functional; settings: Homo sapiens
[16] = Luminescence-based dose response cell-based high throughput screening assay for cytotoxic compounds using the IEC-6 intestinal epithelial cell line. [Related pubchem assays: 1858 (Summary AID.), 1825 (Counterscreen.), 1907 (Confirmation screen.)]; assay type: functional
[17] = HEK-293T viability loss after treatment – luminescence, T-cell screen hits, cytotoxicity control for TCR NF-kB inhibitor project, dose response (AID 489026); assay type: functional, cell-based;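 note: cells exposed to compound about 14 hours before the viability readout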
[18] = target: Inward rectifier potassium channel 2 (Mus musculus, UniProt P35561); assay: Manual electrophysiological patch clamp assay for SAR compounds that inhibit/block inward-rectifying potassium ion channel Kir2.1. [Related pubchem assays: 1843 (Summary assay for Kir2.1 inhibitor assays.), 1672 (Primary HTS of 305616 compounds where 2592 were identified as active.)]; assay type: functional
Chain of Inward rectifier potassium channel 2 (P35561 whole entry): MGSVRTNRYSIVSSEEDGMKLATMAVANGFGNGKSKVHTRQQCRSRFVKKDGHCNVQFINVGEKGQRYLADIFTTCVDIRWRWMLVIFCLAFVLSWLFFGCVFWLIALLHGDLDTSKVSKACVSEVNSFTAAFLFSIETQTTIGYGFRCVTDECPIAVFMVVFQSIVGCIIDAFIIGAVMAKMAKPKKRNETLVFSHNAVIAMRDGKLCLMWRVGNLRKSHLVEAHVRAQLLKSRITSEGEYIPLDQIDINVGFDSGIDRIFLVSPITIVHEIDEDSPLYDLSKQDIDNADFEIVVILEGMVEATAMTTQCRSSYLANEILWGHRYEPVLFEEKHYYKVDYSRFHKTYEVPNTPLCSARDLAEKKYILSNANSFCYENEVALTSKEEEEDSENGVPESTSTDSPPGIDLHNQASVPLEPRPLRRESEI

[19] = target: Potassium voltage-gated channel subfamily KQT member 2 (Rattus norvegicus, UniProt O88943, W236L); assay: potentiation of rat KCNQ2 current – cell-based, automated electrophysiology, mechanism study for KCNQ2 potentiator project, dose response (AID 2603); assay type: functional
Chain of Potassium voltage-gated channel subfamily KQT member 2 (O88943 whole entry W236L, the tested form may be a part): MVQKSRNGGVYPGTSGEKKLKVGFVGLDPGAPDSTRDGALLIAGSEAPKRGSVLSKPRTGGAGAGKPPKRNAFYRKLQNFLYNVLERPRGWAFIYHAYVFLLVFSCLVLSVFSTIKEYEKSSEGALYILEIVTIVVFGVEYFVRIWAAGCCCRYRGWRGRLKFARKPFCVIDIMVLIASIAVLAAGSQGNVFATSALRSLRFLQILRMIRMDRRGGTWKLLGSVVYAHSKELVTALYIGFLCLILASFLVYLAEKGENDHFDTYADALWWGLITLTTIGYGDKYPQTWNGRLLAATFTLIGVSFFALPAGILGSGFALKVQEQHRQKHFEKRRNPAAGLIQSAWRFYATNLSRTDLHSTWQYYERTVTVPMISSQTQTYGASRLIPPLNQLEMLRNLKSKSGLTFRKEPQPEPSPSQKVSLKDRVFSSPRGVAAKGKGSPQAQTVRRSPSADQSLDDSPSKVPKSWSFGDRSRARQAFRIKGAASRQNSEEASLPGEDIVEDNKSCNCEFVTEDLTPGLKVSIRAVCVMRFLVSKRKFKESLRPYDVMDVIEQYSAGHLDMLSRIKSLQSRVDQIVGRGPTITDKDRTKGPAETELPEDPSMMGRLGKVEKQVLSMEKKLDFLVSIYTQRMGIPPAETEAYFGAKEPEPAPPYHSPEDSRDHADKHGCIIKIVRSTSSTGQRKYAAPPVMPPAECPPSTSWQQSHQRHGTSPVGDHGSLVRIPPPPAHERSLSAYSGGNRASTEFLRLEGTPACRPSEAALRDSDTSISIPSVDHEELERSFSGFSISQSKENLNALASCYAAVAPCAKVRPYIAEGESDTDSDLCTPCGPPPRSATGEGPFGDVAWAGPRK

[20] = target: T4, Estrogen receptor; assay: ERα coactivator recruitment enhancers – biochemical, TR-FRET, ERα LBD, dose response (AID 737)
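Throughout, for AC50: cells exposed to compound for roughly 70 hours or longer before luminescence read.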

T1 sequence (P98170 whole entry): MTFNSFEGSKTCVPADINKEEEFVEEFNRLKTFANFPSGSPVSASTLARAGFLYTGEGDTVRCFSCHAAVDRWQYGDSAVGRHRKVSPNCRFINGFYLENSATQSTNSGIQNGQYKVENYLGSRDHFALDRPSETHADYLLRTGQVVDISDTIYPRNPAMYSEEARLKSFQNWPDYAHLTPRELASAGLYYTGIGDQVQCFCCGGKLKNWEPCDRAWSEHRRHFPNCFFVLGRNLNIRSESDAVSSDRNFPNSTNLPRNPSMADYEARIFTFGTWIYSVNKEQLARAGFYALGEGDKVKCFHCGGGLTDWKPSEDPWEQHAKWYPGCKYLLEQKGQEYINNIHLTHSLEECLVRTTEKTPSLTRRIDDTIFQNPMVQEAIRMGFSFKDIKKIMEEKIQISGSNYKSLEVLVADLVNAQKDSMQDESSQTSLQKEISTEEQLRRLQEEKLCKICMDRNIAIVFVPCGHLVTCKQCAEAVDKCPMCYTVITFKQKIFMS

IC50 [1]: > 100 µM (not active)
IC50 [2]: > 100 µM (inactive)
Structure (SMILES): Cc1ccc(NC(=O)CNC2CCS(=O)(=O)C2)cc1C (stereo not given)

Structure (SMILES): Cc1ccc(NC(=O)c2sc3nc(N)c(C#N)cc3c2N)cc1
EC50 [3]: 15.2 µM (active)
EC50 [4]: > 180 µM (inactive)
EC50 [5]: 1.2 µM (active)
EC50 [6]: > 150 µM (inactive)
EC50 [7]: > 150 µM (inactive)

EC50 [8]: > 50 µM (not active)
EC50 [9]: > 50 µM (not active)
EC50 [10]: > 10 µM (not active)
Structure (SMILES): Cc1cc(C(=O)N(C)C2CCCCC2)no1

IC50 [11]: > 17 µM (not active)
Structure (SMILES): COc1ccc(NC(=O)Nc2ccc3c(c2)CCN3S(=O)(=O)c2ccccc2)cc1

EC50 [12]: > 30 µM (not active)
Structure (SMILES): Cc1nc(C)c(C(=O)OCC(=O)c2cc(C)n(Cc3ccccc3)c2C)s1

IC50 [13]: 17.7 µM (active)
IC50 [14]: > 50 µM (not active)
Structure (SMILES): O=C(NCc1ccco1)c1cc2cc3ccc(Cl)cc3nc2o1

Structure (SMILES): COc1ccc(NS(=O)(=O)c2cc(-c3cnc(C4CC4)o3)ccc2C)cc1
AC50 [15]: 0.405 µM (active)
IC50 [16]: 2.08 µM (active)
IC50 [17]: 70.5 µM (inactive)

IC50 [18]: 0.711 µM (active)
Structure (SMILES): COc1ccc(CNCc2ccc(Cl)cc2)cc1

EC50 [19]: 1.51 µM (active)
Structure (SMILES): CCOc1ccccc1NC(=O)NC(C)c1ccc2c(c1)OCO2 (stereo not given)

EC50 [20]: 6.71 µM (not active)
Structure (SMILES): COc1cccc(C2CC(c3ccc(F)cc3)Nc3nc(N)nn32)c1 (stereo not given)
